Target: T1, Recombinant human HSP90α (Homo sapiens, UniProt P07900)
T1 construct: host or cells: E. coli
Assay: HSP90 radioligand filter binding test ([3H]17AAG competition)
Conditions: [3H]17AAG 0.08 μM, HSP90 1.5 μg/assay, 22° C., 30 min; read-out: HSP90 inhibition IC50
Source text: The binding of geldanamycin or 17-allylamino-17-demethoxygeldanamycin (17AAG) to HSP90 and competitive inhibition thereof can be utilised in order to determine the inhibitory activity of the compounds according to the invention (Carreras et al. 2003, Chiosis et al. 2002).
In the specific case, a radioligand filter binding test is used. The radioligand used here is tritium-labelled 17-allylaminogeldanamycin, [3H]17AAG. This filter binding test allows a targeted search for inhibitors which interfere with the ATP binding site.
Recombinant human HSP90α (E. coli expressed, 95% purity);
[3H]17AAG (17-allylaminogeldanamycin, [allylamino-2,3-^3H. Specific activity: 1.11×10^12 Bq/mmol (Moravek, MT-1717);
HEPES filter buffer (50 mM HEPES, pH 7.0, 5 mM MgCl2, BSA 0.01%) Multiscreen FB (1 μm) filter plate (Millipore, MAFBNOB 50).
The 96-well microtitre filter plates are firstly irrigated and coated with 0.1% of polyethylenimine.
The test is carried out under the following conditions:
Reaction temperature 22° C.
Reaction time: 30 min., shaking at 800 rpm
50 mM HEPES HCl, pH 7.0, 5 mM MgCl2, 0.01% (w/v) BSA
At the end of the reaction, the supernatant in the filter plate is removed by suction with the aid of a vacuum manifold (Multiscreen Separation System, Millipore), and the filter is washed twice.
The filter plates are then measured in a beta counter (Microbeta, Wallac) with scintillator (Microscint 20, Packard).
“% of control” is determined from the “counts per minutes” values and the IC-50 value of a compound is calculated therefrom.

Structure (SMILES) | IC50
Fc1nc(N2CCC[C@@H]2COc2ccccc2F)c2nc[nH]c2n1 [Compound A47, 2-Fluoro-6-[(R)-2-(2-fluorophenoxy-methyl)pyrrolidin-1-yl]-9H-purine] | 0.9 µM
Brc1ccccc1OC[C@H]1CCCN1c1ncnc2[nH]cnc12 [Compound A52, 6-[(R)-2-(2-Bromophenoxymethyl)-pyrrolidin-1-yl]-9H-purine] | 20 µM

Further lines, results first:

IC50 | Structure (SMILES)
30 µM | O[C@H]1C[C@H](COc2ccccc2)N(c2nc(Cl)nc3[nH]cnc23)C1 [Compound A53, 2-chloro-6-[(2R,4S)-2-phenoxymethyl-4-hydroxypyrrolidin-1-yl]-9H-purine]
6.3 µM | Cc1nc(N2CCC[C@@H]2COc2ccccc2Cl)c2nc[nH]c2n1 [Compound A58, 2-Methyl-6-[(R)-2-(2-chloro-phenoxymethyl)pyrrolidin-1-yl]-9H-purine]
1.5 µM | Cc1nc(N2CCC[C@@H]2COc2ccccc2F)c2nc[nH]c2n1 [Compound A57, 2-Methyl-6-[(R)-2-(2-fluorophenoxy-methyl)pyrrolidin-1-yl]-9H-purine]

From patent publication US7977343B2, “Adenine derivatives” (Merck Patent Gesellschaft mit beschrankter Haftung, priority 2005, dated 2011)
